Seven compounds from patent US10457707B2, “Substituted urea depsipeptide analogs as activators of the CLPP endopeptidase” (priority 2015, dated 2019) can be followed below.

In brackets after ≈: the same amount, converted by molar mass. *1 amine or outer side, *2 acyl side, *3 side chain or, on linkers, in order; H or OH if unused. Where a SMILES comes first, the peptide text is derived from it. Bridges are numbered along the chain shown (N, C = ends). [ ]: non-standard residue; d: D form. The star is where a group is joined. ξ: configuration not given here. Phe(3,5-F2) = N[C@@H](Cc1cc(F)cc(F)c1)C(=O)O; NH(4-OCF3-phenyl) = FC(F)(F)Oc1ccc(N*)cc1; ξPro(4R-OH) = O=C(O)C1C[C@@H](O)CN1; ξPro(4S-Me) = C[C@@H]1CNC(C(=O)O)C1; ξPro(4R-Me) = C[C@H]1CNC(C(=O)O)C1; NH(4-Et-phenyl) = CCc1ccc(N*)cc1; aThr = C[C@H](O)[C@H](N)C(=O)O; NMeA = CN[C@@H](C)C(=O)O; ξPip = O=C(O)C1CCCCN1; CO = O=C([*:1])[*:2]; ξP = O=C(O)C1CCCN1

Holding throughout (type): cell-based
The subject of test [1] is Streptococcus pyogenes, ATCC 700294. The test is described as follows: Minimal inhibitory concentration assay (microbroth dilution). As to conditions: Streptococcus pyogenes, ATCC700294; read-out: Minimal Inhibitory Concentrations S. pyogenes ATCC 700294. The method, then:
(§1) It is understood, that in various aspects, the MIC is determined by a microbroth dilution method. In a further aspect, the MIC is determined by a microbroth dilution method using Staphylococcus aureus, ATCC 29213. In a still further aspect, the MIC is determined by a microbroth dilution method using Staphylococcus aureus, NRS70. In a yet further aspect, the MIC is determined by a microbroth dilution method using Streptococcus pyogenes, ATCC 700294. In an even further aspect, the MIC is determined by a microbroth dilution method using Streptococcus pneumoniae, DAW27. In a still further aspect, the MIC is determined by a microbroth dilution method using Bacillus subtilis, ATCC 23857. In a yet further aspect, the MIC is determined by a microbroth dilution method using Enterococcus faecalis, ATCC 33186. In an even further aspect, the MIC is determined using Staphylococcus aureus, USA 300. In a still further aspect, the MIC is determined using Streptococcus pneumoniae, R6. In a further aspect, the MIC is determined using Staphylococcus aureus, USA 300 and compared to the MIC determined using Staphylococcus aureus, USA 300 wherein ClpP is inactivated, thus allowing confirmation that killing is via a ClpP-dependent pathway.
Minimal inhibitory concentrations (“MICs”) were determined using the microbroth dilution method according to Clinical Laboratory Standards Institute (CLSI; National, C.F. C. L. S., Methods for Dilution Antimicrobial Susceptibility Tests for Bacteria Grow aerobically-Seventh Edition: Approved Standard M7-A7, CLSI, Wayne, Pa., USA, 2008) and were read by visual inspection. Two fold serial dilutions of test compound in 100 μL of the appropriate broth media were first prepared in 96-well round bottom microtiter plates (Nalgene Nunc International, Rochester, N.Y., USA). […] The plates were then incubated aerobically at 37° C. All strains were incubated overnight. After incubations, in all cases the MIC was recorded as the lowest concentration of drug that prevented bacterial growth. The bacterial strains for which MIC was determined as described in Table 4.
(In broth dilution the organism is exposed to a series of concentrations in liquid medium.)

Test [2] deals with Staphylococcus aureus, ATCC 29213. Described as above. As to conditions: ATCC29213, read-out: Minimal Inhibitory Concentrations S. aureus ATCC 29213. The method, then:
as §1
(§2) Minimal inhibitory concentrations (“MICs”) were determined using the microbroth dilution method according to Clinical Laboratory Standards Institute (CLSI; National, C.F. C. L. S., Methods for Dilution Antimicrobial Susceptibility Tests for Bacteria Grow aerobically-Seventh Edition: Approved Standard M7-A7, CLSI, Wayne, Pa., USA, 2008) and were read by visual inspection. Two fold serial dilutions of test compound in 100 μL of the appropriate broth media were first prepared in 96-well round bottom microtiter plates (Nalgene Nunc International, Rochester, N.Y., USA). An equivalent volume (100 μL) of bacterial broth inocula containing approximately 10^5 bacterial cfu/mL was added to each well to give final concentrations of test compound starting at 200 μM. The plates were then incubated aerobically at 37° C. All strains were incubated overnight. After incubations, in all cases the MIC was recorded as the lowest concentration of drug that prevented bacterial growth. The bacterial strains for which MIC was determined as described in Table 4.

The test system of test [3] is Bacillus subtilis, ATCC 23857. Described as above. As to conditions: Bacillus subtilis, ATCC23857; read-out: Minimal Inhibitory Concentrations B. subtilis ATCC 23857. The method, then:
as §1, §2

For test [4], the system named is Staphylococcus aureus, NRS70. The description is as above. As to conditions: Staphylococcus aureus, NRS70; read-out: Minimal Inhibitory Concentrations S. aureus NRS70. The method, then: as §1, §2
Test [5] has as its system Staphylococcus aureus, USA 300. In words: Minimal inhibitory concentration assay. As to conditions: USA300, read-out: Minimal Inhibitory Concentrations S. aureus USA 300. The method, then:
as §1, §2

Test [6] relates to Staphylococcus aureus, USA 300 wherein ClpP is inactivated. The test is described as follows: Minimal inhibitory concentration assay. The method, then:
as §1, §2

In the case of `C[C@@H]1NC(=O)[C@H](C)N(C)C(=O)C2CCCN2C(=O)[C@@H](NC(=O)[C@H](Cc2cc(F)cc(F)c2)NC(=O)Nc2ccc(OC(F)(F)F)cc2)[C@H](C)OC(=O)C2CCCN2C1=O` (stereo partly drawn) [Compound 27, (2S)-3-(3,5-difluorophenyl)-N-((6S,9S,11aS,17S,18S)-6,9,10,18-tetramethyl-5,8,11,16,20-pentaoxohexadecahydro-1H,5H,16H-dipyrrolo[2,1-c:2′,1′-l][1]oxa[4,7,10,13]tetraazacyclohexadecin-17-yl)-2-(3-(4-(trifluoromethoxy)phenyl)ureido)propanamide] ({NH(4-OCF3-phenyl)-CO}-[Phe(3,5-F2)][aThr][ξP][NMeA]A[ξP]; ester 2-C), the MIC in test [1] came to 0.23 µM (≈ 0.193 µg/mL); in test [2] it was 0.2 µM (≈ 0.168 µg/mL); in test [3], 0.02 µM (≈ 0.0168 µg/mL); in test [4], 0.2 µM (≈ 0.168 µg/mL); in test [5], 0.2 µM (≈ 0.168 µg/mL). In addition, the “Minimal Inhibitory Concentrations S. aureus USA 300 ΔClpP” value in test [6] was 100 µM.

For the compound `CCc1ccc(NC(=O)N[C@@H](Cc2cc(F)cc(F)c2)C(=O)N[C@@H]2C(=O)N3CCCC3C(=O)N(C)[C@@H](C)C(=O)N[C@@H](C)C(=O)N3CCCC3C(=O)O[C@H]2C)cc1` (stereo partly drawn) [Compound 29, (2S)-3-(3,5-difluorophenyl)-2-(3-(4-ethylphenyl)ureido)-N-((6S,9S,11aS,17S,18S)-6,9,10,18-tetramethyl-5,8,11,16,20-pentaoxohexadecahydro-1H,5H,16H-dipyrrolo[2,1-c:2′,1′-l][1]oxa[4,7,10,13]tetraazacyclohexadecin-17-yl)propanamide] ({NH(4-Et-phenyl)-CO}-[Phe(3,5-F2)][aThr][ξP][NMeA]A[ξP]; ester 2-C), the MIC in test [1] was determined as 0.13 µM (≈ 0.102 µg/mL); in test [2], 0.2 µM (≈ 0.156 µg/mL); in test [3], 0.01 µM (≈ 0.00782 µg/mL); in test [4] it was 0.2 µM (≈ 0.156 µg/mL); in test [5], 0.2 µM (≈ 0.156 µg/mL). In test [6], the “Minimal Inhibitory Concentrations S. aureus USA 300 ΔClpP” value was determined as 100 µM.

With `CCc1ccc(NC(=O)N[C@@H](Cc2cc(F)cc(F)c2)C(=O)N[C@@H]2C(=O)N3CCCC3C(=O)N(C)[C@@H](C)C(=O)N[C@@H](C)C(=O)N3C[C@@H](C)CC3C(=O)O[C@H]2C)cc1` (stereo partly drawn) [Compound 30, (S)-3-(3,5-difluorophenyl)-2-(3-(4-ethylphenyl)ureido)-N-((2S,6S,9S,11aS,17S,18S,20aS)-2,6,9,10,18-pentamethyl-5,8,11,16,20-pentaoxohexadecahydro-1H,5H,16H-dipyrrolo[2,1-c:2′,1′-L][1]oxa[4,7,10,13]tetraazacyclohexadecin-17-yl)propanamide] ({NH(4-Et-phenyl)-CO}-[Phe(3,5-F2)][aThr][ξP][NMeA]A[ξPro(4S-Me)]; ester 2-C), the MIC amounted to 0.03 µM (≈ 0.0239 µg/mL) in test [1]; 0.1 µM (≈ 0.0796 µg/mL) in test [2]; 0.001 µM (≈ 0.000796 µg/mL) in test [3]; 0.2 µM (≈ 0.159 µg/mL) in test [4]; 0.1 µM (≈ 0.0796 µg/mL) in test [5]. Besides, the “Minimal Inhibitory Concentrations S. aureus USA 300 ΔClpP” value in test [6] was 50 µM.

For the compound `C[C@H]1CC2C(=O)O[C@@H](C)[C@H](NC(=O)[C@H](Cc3cc(F)cc(F)c3)NC(=O)Nc3ccc(OC(F)(F)F)cc3)C(=O)N3C[C@H](O)CC3C(=O)N(C)[C@@H](C)C(=O)N[C@@H](C)C(=O)N2C1` (stereo partly drawn) [Compound 32, (S)-3-(3,5-difluorophenyl)-N-((2S,6S,9S,11aS,13R,17S,18S,20aS)-13-hydroxy-2,6,9,10,18-pentamethyl-5,8,11,16,20-pentaoxohexadecahydro-1H,5H,16H-dipyrrolo[2,1-c:2′,1′-l][1]oxa[4,7,10,13]tetraazacyclohexadecin-17-yl)-2-(3-(4-(trifluoromethoxy)phenyl)ureido)propanamide] ({NH(4-OCF3-phenyl)-CO}-[Phe(3,5-F2)][aThr][ξPro(4R-OH)][NMeA]A[ξPro(4S-Me)]; ester 2-C), the MIC in test [1] came out at 0.2 µM (≈ 0.174 µg/mL); in test [2] it was 0.1 µM (≈ 0.0868 µg/mL); in test [3], 0.39 µM (≈ 0.338 µg/mL); in test [4], 0.1 µM (≈ 0.0868 µg/mL); in test [5], 0.39 µM (≈ 0.338 µg/mL). Also, the “Minimal Inhibitory Concentrations S. aureus USA 300 ΔClpP” value in test [6] worked out at 100 µM.

For `C[C@@H]1CC2C(=O)O[C@@H](C)[C@H](NC(=O)[C@H](Cc3cc(F)cc(F)c3)NC(=O)Nc3ccc(OC(F)(F)F)cc3)C(=O)N3CCCC3C(=O)N3CCCCC3C(=O)N[C@@H](C)C(=O)N2C1` (stereo partly drawn) [Compound 40, (S)-3-(3,5-difluorophenyl)-2-(3-(4-(trifluoromethoxy)phenyl)ureido)-N-((2R,6S,8aS,14aS,20S,21S,23aS)-2,6,21-trimethyl-5,8,14,19,23-pentaoxooctadecahydro-1H,5H,14H,19H-pyrido[2,1-i]dipyrrolo[2,1-c:2′,1′-L][1]oxa[4,7,10,13]tetraazacyclohexadecin-20-yl)propanamide] ({NH(4-OCF3-phenyl)-CO}-[Phe(3,5-F2)][aThr][ξP][ξPip]A[ξPro(4R-Me)]; ester 2-C), the MIC in test [1] is 0.4 µM (≈ 0.351 µg/mL); in test [2] it was 0.05 µM (≈ 0.0439 µg/mL); in test [3] it was 0.02 µM (≈ 0.0176 µg/mL); in test [4] it was 0.02 µM (≈ 0.0176 µg/mL); in test [5] it was 0.05 µM (≈ 0.0439 µg/mL). Also, in test [6], the “Minimal Inhibitory Concentrations S. aureus USA 300 ΔClpP” value was 25 µM.

In the case of `C[C@H]1CC2C(=O)OC[C@H](NC(=O)[C@H](Cc3ccccc3)NC(=O)Nc3ccc(OC(F)(F)F)cc3)C(=O)N3CCCC3C(=O)N3CCCCC3C(=O)N[C@@H](C)C(=O)N2C1` (stereo partly drawn) [Compound 44, (S)—N-((2S,6S,8aS,14aS,20S,23aS)-2,6-dimethyl-5,8,14,19,23-pentaoxooctadecahydro-1H,5H,14H,19H-pyrido[2,1-i]dipyrrolo[2,1-c:2′,1′-l][1]oxa[4,7,10,13]tetraazacyclohexadecin-20-yl)-3-phenyl-2-(3-(4-(trifluoromethoxy)phenyl)ureido)propanamide], the MIC in test [1] stood at 0.2 µM (≈ 0.166 µg/mL); in test [2], 0.4 µM (≈ 0.331 µg/mL); in test [3], 0.1 µM (≈ 0.0828 µg/mL); in test [4], 0.4 µM (≈ 0.331 µg/mL); in test [5] it was 0.8 µM (≈ 0.662 µg/mL). In addition, in test [6], the “Minimal Inhibitory Concentrations S. aureus USA 300 ΔClpP” value was determined as 50 µM.

Turning to `C[C@H]1CC2C(=O)OC[C@H](NC(=O)[C@H](Cc3cc(F)cc(F)c3)NC(=O)Nc3ccc4c(c3)OCO4)C(=O)N3CCCC3C(=O)N3CCCCC3C(=O)N[C@@H](C)C(=O)N2C1` (stereo partly drawn) [Compound 46, (S)-2-(3-(benzo[d][1,3]dioxol-5-yl)ureido)-3-(3,5-difluorophenyl)-N-((2S,6S,8aS,14aS,20S,23aS)-2,6-dimethyl-5,8,14,19,23-pentaoxooctadecahydro-1H,5H,14H,19H-pyrido[2,1-i]dipyrrolo[2,1-c:2′,1′-l][1]oxa[4,7,10,13]tetraazacyclohexadecin-20-yl)propanamide], the MIC in test [1] is 0.8 µM (≈ 0.659 µg/mL); in test [2], 3.1 µM (≈ 2.55 µg/mL); in test [3] it was 0.4 µM (≈ 0.33 µg/mL); in test [4], 1.6 µM (≈ 1.32 µg/mL); in test [5] it was 3.1 µM (≈ 2.55 µg/mL). For the same compound, the “Minimal Inhibitory Concentrations S. aureus USA 300 ΔClpP” value in test [6] was 200 µM.
